EP0132130A2, “Aroyl benzofuran and benzothiophene acetic and propionic acids processes for their production and pharmaceutical compositions containing them” (SYNTEX (U.S.A.) INC., priority 1983, dated 1985)

Tests used:
[1] = tested on: phenylquinone induced writhing; assay: Screening test for analgetic activity: mouse analgetic (anti-writhing) assay (method of Hendershot & Forsaith); format: in vivo; conditions: activity relative to aspirin = 1; oral by gavage, male Swiss-Webster mice, phenylquinone IP twenty minutes later
Description: Small animal screening tests to determine analgetic activity potential include the mouse analgetic (anti-writhing) assay according to the method of Hendershot and Forsaith, J. Pharmacol. Exp. Ther., 125:237-240, (1959).
The oral analgetic activity potential is determined utilizing the mouse analgetic (anti-writhing) assay in accordance with the method of Hendershot & Forsaith, J.Pharmacol.Exp.Ther., 125:237-240, (1959).
The test material is administered orally by gavage in an aqueous vehicle at time 0 to 18-20 gram male Swiss-Webster mice. Twenty minutes later 0.5 ml of a 0.02% solution of phenylquinone is injected IP. This solution induces writhing.
The total number of mice that writhe and the average number of writhes per mouse indicates the activity of the compound tested; the fewer writhes per mouse indicates a greater activity. Compounds of this invention show analgetic activity in this assay as illustrated in Table 2 below.

[2] = tested on: carrageenin induced paw inflammation; assay: Screening test for anti-inflammatory activity: carrageenin induced paw inflammation in the rat (method of Winter et al.); format: in vivo; conditions: activity relative to phenylbutazone = 1; oral by gavage at hour 0, female rats, carrageenin at hour 1, paws weighed at hour 4
Description: Initial small animal screening tests to determine anti-inflammatory activity potential include the carrageenin induced paw inflammation in the rat according to the method of Winter, et al., Proc. Soc. Exp. Biol. Med., 111:544-547, (1962) and the cotton pellet granuloma test in the rat according to the method of Meier, et al Experientia 6:469-471, (1950) and modifications thereof. The oral anti-inflammatory activity is determined utilizing carrageenin induced paw inflammation in the rat in accordance with the method of Winter, et al., Pro.Soc.Exp.Biol.Med., III:544-547, (1962). Female rats weighing 80-90 grams are used. The test materials are given at hour 0 orally by gavage in 1 ml of aqueous vehicle. At hour 1, 0.05 ml of a 1% solution (in 0.9% NaCl) of carrageenin is injected into the right hind paw. This injection causes inflammation of the paw. The rats are sacrificed at hour 4, at which time both hind paws are removed and weighed separately. The percent increase in paw size is calculated as follows: • Wt. of right paw - Wt of left ^paw X 100 […] The smaller the percent increase in paw size, the lesser the degree of inflammation and the greater the anti-inflammatory activity. Compounds of this invention show anti-inflammatory activity in this test as illustrated in Table 1 below.

## CC(C(=O)O)c1cc(C(=O)c2ccc(Cl)cc2)c2occc2c1 (racemic) [d.1-2-(7-(4-chlorobenzoyl)benzofuran-5-yl)-propionic acid]
[1]
  Analgesic Activity (Aspirin = 1): 35
[2]
  (Phenylbutazone = 1) Antiinflammatory Activity: 4

## CSc1ccc(C(=O)c2cc(CC(=O)O)cc3ccoc23)cc1 [7-(4-methylthiobenzoyl)benzofuran-5-ylacetic acid]
[1]
  Analgesic Activity (Aspirin = 1): 95
[2]
  (Phenylbutazone = 1) Antiinflammatory Activity: 1.5

## CSc1ccc(C(=O)c2cc(C(C)C(=O)O)cc3ccoc23)cc1 (racemic) [d,l 2-(7-(4-methylthiobenzoyl)benzofuran-5-yl)-propionic acid]
[1]
  Analgesic Activity (Aspirin = 1): 25
[2]
  (Phenylbutazone = 1) Antiinflammatory Activity: 15

## O=C(O)Cc1cc(C(=O)c2ccc(Cl)cc2)c2sccc2c1 [7-(4-chlorobenzoyl)benzothiophen-5-ylacetic acid]
[1]
  Analgesic Activity (Aspirin = 1): 7
[2]
  (Phenylbutazone = 1) Antiinflammatory Activity: 1.5

## O=C(O)Cc1cc(C(=O)c2ccccc2)c2occc2c1 [Ar=phenyl, R1=H, X1=O, X2=O, R2=H, R3=H, 7-benzoylbenzofuran-5-ylacetic acid]
[1]
  Analgesic Activity (Aspirin = 1): 25
[2]
  (Phenylbutazone = 1) Antiinflammatory Activity: 1

## CC(C(=O)O)c1cc(C(=O)c2ccccc2)c2occc2c1 (racemic) [d,l 2-(7-benzoylbenzofuran-5-yl)propionic acid]
[1]
  Analgesic Activity (Aspirin = 1): 50
[2]
  (Phenylbutazone = 1) Antiinflammatory Activity: 2

## O=C(O)Cc1cc(C(=O)c2ccc(Cl)cc2)c2occc2c1 [7-(4-chlorobenzoyl)benzofuran-5-ylacetic acid]
[1]
  Analgesic Activity (Aspirin = 1): 32
[2]
  (Phenylbutazone = 1) Antiinflammatory Activity: 0.5
